Data taken from patent US6963012B2, “Diaryl ether derivative, addition salt thereof, and immunosuppressant” (Kyorin Pharmaceutical Co., Ltd., priority 2001, dated 2005).
Where a name gives a salt, the structure may show the parent alone.

How the values were obtained:
[1] = system: Host vs Graft Rejection in Mice; assay: Ability of test compounds to suppress host vs graft rejection in mice (popliteal lymph node weight); assay type: in vivo, mice (C3H/HeN, BALB/c stimulation cells); settings: Mus musculus
Protocol: Ability of Test Compounds to Suppress Host vs Graft Rejection in Mice
This experiment was performed according to the method described in Transplantation, 55, No.3 (1993): 578-591. Spleens were collected from 9 to 11 week old male BALB/c mice (CLEA JAPAN Inc., CHARLES RIVER JAPAN Inc., or JAPAN SLC Inc.). The spleens were placed in a phosphate-buffered saline (PBS(−), NISSUI PHARMACEUTICAL Co., Ltd.) or in an RPMI-1640 medium (GIBCO […] Inc., or IWAKI GLASS Co., Ltd.) and were either passed through a stainless steel mesh, or gently pressed between two slide glasses and then passed through a cell strainer (70 μm, Falcon), to form a cell suspension. The suspension was then centrifuged and the supernatant was discarded. An ammonium chloride-Tris isotonic buffer was added to the suspension to lyse erythrocytes. The cells were then centrifuged and washed three times in PBS (−) or RPMI-1640 medium and were resuspended in an RPMI-1640 medium. To this suspension, mitomycin C (KYOWA HAKKO KOGYO Co., Ltd.) was added to a final concentration of 25 μg/mL and the suspension was incubated for 30 minutes at 37° C. in a 5% CO2 atmosphere. The cells were again centrifuged and washed in PBS (−) or RPMI-1640 medium and were resuspended in an RPMI-1640 medium so that the medium would contain 2.5×10^8 cells/mL. This suspension served as a “stimulation cell suspension.” Using a 27G needle along with a microsyringe (Hamilton), 20 μL (5×10^6 cells/mouse) of the stimulation cell suspension was subcutaneously injected into the right hind footpad of 7 to 9 week old male C3H/HeN mice (CLEA JAPAN Inc., CHARLES RIVER JAPAN Inc., or JAPAN SLC Inc.). A group of mice was injected with RPMI-1640 medium alone to serve as normal control. 4 days after the injection, right popliteal lymph nodes were collected and were weighed on a Mettler AT201 electronic scale (METTLER TOLEDO Co., Ltd.). Each animal was intraperitoneally administered a test compound once a day for four consecutive days starting on the day of the injection of the stimulation cells (i.e., total of 4 times). Controls were administered a vehicle that has the same composition as that used in the preparation of the test compounds.

[2] = system: Delayed-type Hypersensitivity in Mice; assay: Ability of test compounds to suppress delayed-type hypersensitivity in mice (DNFB, ear thickness); assay type: in vivo, mice (BALB/c); settings: dose 3 mg/kg, orally, 30 minutes before DNFB challenge; increase in ear thickness 24 hours after the challenge
Protocol: <Experiment 2> Ability of Test Compounds to Suppress Delayed-type Hypersensitivity in Mice. […] The sensitization was done for 2 consecutive days (day 0 and day 1). On day 5, the ears of the mice were challenged with the antigen to induce delayed-type hypersensitive responses: First, the thickness of each ear was measured by the dial thickness gauge G (0.01-10 mm, OZAKI MFG Co., Ltd.). Next, a test compound was administered. 30 minutes after the administration, 10 μL of a 0.2% (v/v) DNFB solution was applied to the inner and outer surfaces of the right ear of each animal for antigen challenge. The left ear of each animal was challenged with the solvent alone. 24 hours after the challenge, the increase in the ear thickness was measured for each ear and the difference between the right and the left ears was determined for each individual. The test compound was dissolved, or suspended, in an ultra pure water and was orally administered at a dose of 0.1 mL/10 g of body weight. A control group was administered ultra pure water alone.

melting point [°C]	Compound	inhibition at 10 mg/kg [1] [%]	inhibition at 3 mg/kg [1] [%]	Inhibition [2] [%]
203 to 206	Cl.NC(CO)(CO)C/C=C/c1ccc(Oc2cc(C(F)(F)F)cc(C(F)(F)F)c2)cc1	–	–	–
151 to 155	Cl.NC(CO)(CO)CCOc1ccc(Oc2cc(C(F)(F)F)cc(C(F)(F)F)c2)cc1	–	–	–
150 to 152	Cl.NC(CO)(CO)CCc1ccc(Oc2cccc(OCc3ccccc3)c2)cc1Cl	–	–	–
95 to 97	Cl.NC(CO)(CO)CCCCc1ccc(Oc2cccc(OCc3ccccc3)c2)cc1Cl	–	–	–
194 to 196	Cl.NC(CO)(CO)CCCc1ccc(Oc2cc(C(F)(F)F)cc(C(F)(F)F)c2)cc1 [Example 147, 2-amino-2-[4-(3,5-bistrifluoromethylphenoxy)phenyl]propyl-1,3-propanediol hydrochloride]	82	–	–
95 to 98	Cl.NC(CO)(CO)CCCc1ccc(Oc2cccc(OCCCc3ccccc3)c2)cc1 [Example 148, 2-amino-2-[4-(3-phenylpropyloxyphenoxy)phenyl]propyl-1,3-propanediol hydrochloride]	–	78	–
–	CC(C)c1cccc(Oc2ccc(CCCC(N)(CO)CO)cc2)c1 [Example 150, 2-amino-2-[4-(3-isopropylphenoxy)phenyl]propyl-1,3-propanediol hydrochloride]	78	–	–
105 to 106	Cl.NC(CO)(CO)CCCc1ccc(Oc2cccc(OCc3ccccc3)c2)cc1Cl [Example 173, 2-amino-2-[4-(3-benzyloxyphenoxy)-2-chlorophenyl]propyl-1,3-propanediol hydrochloride]	–	100	64
